test system: SW620 cells (KRAS-G12V); test: Cell proliferation / cytotoxicity assay (CellTiter-Glo 2.0); type: cell-based; details: Homo sapiens, SW-620, 72 h, SW620 cell line (KRAS-G12V), 72 hours incubation, luminescence (CellTiter-Glo 2.0); read-out: 5W620 IC50
Procedure: Compounds are assayed for inhibition of cell proliferation and killing cancer cells. Cytotoxicity assays are conducted according to the following general procedure. SW620 cells (ATCC CCL-227) are maintained in DMEM Low Glucose (Corning 10-014-CV) media supplemented with 10% fetal bovine serum and 1% PenStrep and grown at 37° C. in 5% CO2. Cells are plated into 96 well flat bottom plates (2 million/plate, ˜20,000/well, 200 μL media/well). The cells are allowed to settle and adhere to the plate bottom overnight. Compounds are diluted in media from a 10 mM stock solution starting at 50 μM, using 2-fold dilutions, in a column in a 96-well plate. Media is removed from the plate containing cells and replaced with media containing diluted compounds. Plates are incubated 72 hours at 37° C. in 5% CO2. Plates were allowed to come to room temperature and 100 μL CellTiter-Glo 2.0 reagent (Promega, G924C) is added at room temperature. Plates are shaken for 2 minutes, then allowed to stand for 15 minutes. Luminescence is read with FLx800 (BioTek Instruments). Data is plotted with GraphPad Prizm 8.0.
Dose response curves for the cytotoxicity of exemplary compounds against SW620 (KRAS-G12V) and MIA PaCa-2 (KRAS-G12C) cell lines are shown in FIG. 1A-1J.

First: Cc1nc(N[C@H]2CC[C@@H](NC3Cc4cccc(Cl)c4C3)CC2)nc2ccc(-c3cccc4c3OCCO4)cc12 (stereo partly shown) [Compound 68]
Second: Cc1ncccc1-c1ccc2nc(N[C@H]3CC[C@@H](NC4Cc5cccc(Cl)c5C4)CC3)nc(C)c2c1 (stereo partly shown) [Compound 69]
The IC50 of the first is lower: under 5 µM for the first, 5 to 10 µM for the second.

`Cc1nc(NC2CCN(Cc3ccc(Cl)cc3)CC2)nc2ccc(-c3cccc4c3OCC(=O)N4)cc12` [Compound 70] and `Cc1nc(N[C@H]2CC[C@@H](N)CC2)nc2ccc(-c3cccc4c3OCC(=O)N4)cc12` [Compound 71] fall in the same range of IC50: 5 to 10 µM for the first, 5 to 10 µM for the second.

`Cc1nc(N[C@@H]2CC[C@H]3CC[C@@H](C2)N3C(=O)c2ccccc2Cl)nc2ccc(-c3cccc4c3CCCC4)cc12` [Compound 72] and `Cc1nc(N[C@@H]2CC[C@H]3CC[C@@H](C2)N3C(=O)c2ccc(Cl)cc2Cl)nc2ccc(-c3cccc4c3CCCC4)cc12` [Compound 73] fall in the same range of IC50: 5 to 10 µM for the first, 5 to 10 µM for the second.

For `Cc1nccc(-c2ccc3nc(N[C@@H]4CC[C@H]5CC[C@@H](C4)N5Cc4ccc(Cl)cc4)nc(C)c3c2)c1Cl` [Compound 74], the IC50 was under 5 µM.

— US12528796B2, “Modulators of RAS GTPase” (Tosk, Inc., priority 2019, dated 2026)
